The term GI50 denotes the concentration that inhibits growth by half. Read a low GI50 as more potent growth inhibition.

Bounds are passed on as bounds.

GI50 data for 29 molecules are collected here from US12479845B2, “Imidazopyridine derivative compounds and use of same” (HANMI PHARM. CO., LTD., priority 2019, dated 2025).

This assay deals with NCI-H1417 cells. As to the kind of experiment: Cell growth suppression test (CellTiter-Glo Luminescent Cell Viability Assay, 10 days treatment). The assay is classed as cell-based. The settings on record: Homo sapiens, 240 h, treated for 10 days. The method, then: Cell growth suppression effects of the synthesized compounds on NCI-H1417 cells were identified. The cells were treated with the synthesized compounds for 10 days. Then, in order to test the cell growth suppression, CellTiter-Glo Luminescent Cell Viability Assay (available from Promega, USA) was used. This test is to measure emission signals proportional to the number of ATPs based on a fixed amount of ATPs, which represents the presence of metabolically active cells, thereby determining the number of viable cells. The results are expressed as a Gl50 value. As for a control, GSK2879552 (available from GlaxoSmithKline USA) was used.
`N#Cc1ccc(-c2nc3c(N4CCC[C@@H](N)C4)ccnc3n2-c2ccc(O)cc2)cc1F` [Example 40, (R)-4-(7-(3-aminopiperidine-1-yl)-3-(4-hydroxyphenyl)-3H-imidazo[4,5-b]pyridine-2-yl)-2-fluorobenzonitrile] had a GI50 of 0.042 µM. In the case of `N#Cc1ccc(-c2nc3c(N4CCC[C@@H](N)C4)ccnc3n2-c2ccc(N3CCOCC3)cc2F)cc1F` [Example 33, (R)-4-(7-(3-aminopiperidine-1-yl)-3-(2-fluoro-4-morpholinophenyl)-3H-imidazo[4,5-b]pyridine-2-yl)-2-fluorobenzonitrile] it was 0.044 µM; in that of `N#Cc1ccc(-c2nc3c(N4CCC[C@@H](N)C4)ccnc3n2-c2cccc(OCCN3CCOCC3)c2)cc1F` [Example 37, (R)-4-(7-(3-aminopiperidine-1-yl)-3-(3-(2-morpholinoethoxy)phenyl)-3H-imidazo[4,5-b]pyridine-2-yl)-2-fluorobenzonitrile], 0.148 µM.

In the case of `CN1CCN(c2ccc(-n3c(-c4ccc(C#N)c(F)c4)nc4c(N5CCC[C@@H](N)C5)ccnc43)c(F)c2)CC1` [Example 34], the GI50 turned out to be 0.101 µM. `Cc1ccc(-n2c(-c3ccc(C#N)c(F)c3)nc3c(N4CCC[C@@H](N)C4)ccnc32)nc1` [Example 45, (R)-4-(7-(3-aminopiperidine-1-yl)-3-(5-methylpyridine-2-yl)-3H-imidazo[4,5-b]pyridine-2-yl)-2-fluorobenzonitrile] yielded a GI50 of 0.171 µM.

Take `CO[C@H]1CCN(c2ccc(-n3c(-c4ccc(C#N)c(F)c4)nc4c(N5CCC6(CC5)CNC6)ccnc43)c(F)c2)C1` [Example 66, (S)-2-fluoro-4-(3-(2-fluoro-4-(3-methoxypyrrolidine-1-yl)phenyl)-7-(2,7-diazaspiro[3.5]nonane-7-yl)-3H-imidazo[4,5-b]pyridine-2-yl)benzonitrile]: the GI50 was found to be 0.023 µM. In the case of `N#Cc1ccc(-c2nc3c(N4CCC[C@@H](N)C4)ccnc3n2-c2ccc(C3CCCCC3)cc2)cc1F` [Example 46, (R)-4-(7-(3-aminopiperidine-1-yl)-3-(4-cyclohexylphenyl)-3H-imidazo[4,5-b]pyridine-2-yl)-2-fluorobenzonitrile] it was 0.303 µM; in that of `CN(C)C1CCN(c2ccc(-n3c(-c4ccc(C#N)c(F)c4)nc4c(N5CCC[C@@H](N)C5)ccnc43)c(F)c2)C1` (stereo partly drawn) [Example 57, 4-(7-((R)-3-aminopiperidine-1-yl)-3-(4-(3-(dimethylamino)pyrrolidine-1-yl)-2-fluorophenyl)-3H-imidazo[4,5-b]pyridine-2-yl)-2-fluorobenzonitrile], 0.053 µM. In the case of `COc1cc(C#N)ccc1-c1nc2c(N3CCC[C@@H](N)C3)ccnc2n1-c1ccc(N2CC[C@H](OC)C2)cc1F` [Example 53, 4-(7-((R)-3-aminopiperidine-1-yl)-3-(2-fluoro-4-((S)-3-methoxypyrrolidine-1-yl)phenyl)-3H-imidazo[4,5-b]pyridine-2-yl)-3-methoxybenzonitrile] it was greater than 1 µM. The figure for `CO[C@H]1CCN(c2ccc(-n3c(-c4ccc(C#N)c(F)c4)nc4c(N5C6CCC5CC(N)C6)ccnc43)c(F)c2)C1` (stereo partly drawn) [Example 63, 4-(7-(3-amino-8-azabicyclo[3.2.1]octane-8-yl)-3-(2-fluoro-4-((S)-3-methoxypyrrolidine-1-yl)phenyl)-3H-imidazo[4,5-b]pyridine-2-yl)-2-fluorobenzonitrile] is 0.29 µM; for `Cn1ccc2cc(-n3c(-c4ccc(C#N)c(F)c4)nc4c(N5CCC[C@@H](N)C5)ccnc43)cnc21` [Example 54, (R)-4-(7-(3-aminopiperidine-1-yl)-3-(1-methyl-1H-pyrrolo[2,3-b]pyridine-5-yl)-3H-imidazo[4,5-b]pyridine-2-yl)-2-fluorobenzonitrile] it is 0.021 µM; for `C=Cc1cccc(-n2c(-c3ccc(C#N)c(F)c3)nc3c(N4CCC[C@@H](N)C4)ccnc32)c1` [Example 47, (R)-4-(7-(3-aminopiperidine-1-yl)-3-(3-vinylphenyl)-3H-imidazo[4,5-b]pyridine-2-yl)-2-fluorobenzonitrile] it is 0.36 µM. The molecule `Cn1ccc2cc(-n3c(-c4ccc(C#N)c(F)c4)nc4c(N5CCC[C@@H](N)C5)ccnc43)ccc21` [Example 44, (R)-4-(7-(3-aminopiperidine-1-yl)-3-(1-methyl-1H-indole-5-yl)-3H-imidazo(4,5-b)pyridine-2-yl)-2fluorobenzonitrile] gave a 50% growth inhibitory concentration (GI50) of 0.171 µM. The figure for `CO[C@H]1CCN(c2ccc(-n3c(-c4ccc(C#N)c(F)c4)nc4c(N5CCC6(CCNC6)C5)ccnc43)c(F)c2)C1` (stereo partly drawn) [Example 65, 2-fluoro-4-(3-(2-fluoro-4-((S)-3-methoxypyrrolidine-1-yl)phenyl)-7-(2,7-diazaspiro[4.4]nonane-2-yl)-3H-imidazo[4,5-b]pyridine-2-yl)benzonitrile] is 0.039 µM; for `CO[C@H]1CCN(c2ccc(-n3c(-c4ccc(C#N)c(F)c4)nc4c(N5CC6COCC6C5)ccnc43)c(F)c2)C1` (stereo partly drawn) [Example 68, 2-fluoro-4-(3-(2-fluoro-4-((S)-3-methoxypyrrolidine-1-yl)phenyl)-7-(tetrahydro-1H-furo[3,4-c]pyrrole-5(3H)-yl)-3H-imidazo[4,5-b]pyridine-2-yl)benzonitrile] it is greater than 1 µM. The figure for `CCCCCCc1ccc(-n2c(-c3ccc(C#N)c(F)c3)nc3c(N4CCC[C@@H](N)C4)ccnc32)cc1` [Example 51, (R)-4-(7-(3-aminopiperidine-1-yl)-3-(4-hexylphenyl)-3H-imidazo[4,5-b]pyridine-2-yl)-2-fluorobenzonitrile] is 0.242 µM; for `CO[C@H]1CCN(c2ccc(-n3c(-c4ccc(C#N)cc4F)nc4c(N5CCC[C@@H](N)C5)ccnc43)c(F)c2)C1` [Example 52, 4-(7-((R)-3-aminopiperidine-1-yl)-3-(2-fluoro-4-((S)-3-methoxypyrrolidine-1-yl)phenyl)-3H-imidazo[4,5-b]pyridine-2-yl)-3-fluorobenzonitrile] it is 0.03 µM; for `N#Cc1ccc(-c2nc3c(N4CCC[C@@H](N)C4)ccnc3n2-c2ccc3c(c2)CCC3)cc1F` [Example 42, (R)-4-(7-(3-aminopiperidine-1-yl)-3-(2,3-dihydro-1H-indene-5-yl)-3H-imidazo[4,5-b]pyridine-2-yl)-2-fluorobenzonitrile] it is 0.026 µM. `CO[C@H]1CCCN(c2ccc(-n3c(-c4ccc(C#N)c(F)c4)nc4c(N5CCC[C@@H](N)C5)ccnc43)c(F)c2)C1` [Example 56] displayed a GI50 of 0.014 µM. This GI50 lies about 1.9-fold lower than the previous one.

For the molecule `Cn1ncc2cc(-n3c(-c4ccc(C#N)c(F)c4)nc4c(N5CCC[C@@H](N)C5)ccnc43)ccc21` [Example 55, (R)-4-(7-(3-aminopiperidine-1-yl)-3-(1-methyl-1H-indazole-5-yl)-3H-imidazo[4,5-b]pyridine-2-yl)-2-fluorobenzonitrile], the 50% growth inhibitory concentration (GI50) is 0.0079 µM. This GI50 is about 1.8-fold lower than that of the molecule before. The figure for `CO[C@H]1CCN(c2ccc(-n3c(-c4ccc(C#N)c(F)c4)nc4c(N5CC6(CNC6)C5)ccnc43)c(F)c2)C1` [Example 69, (S)-2-fluoro-4-(3-(2-fluoro-4-(3-methoxypyrrolidine-1-yl)phenyl)-7-(2,6-diazaspiro[3.3]heptane-2-yl)-3H-imidazo[4,5-b]pyridine-2-yl) benzonitrile] is greater than 1 µM; for `N#Cc1ccc(-c2nc3c(N4CCC[C@@H](N)C4)ccnc3n2-c2ccc(C(=O)N3CCOCC3)cc2)cc1F` [Example 38, (R)-4-(7-(3-aminopiperidine-1-yl)-3-(4-(morpholino-4-carbonyl)phenyl)-3H-imidazo[4,5-b]pyridine-2-yl)-2-fluorobenzonitrile] it is 0.612 µM. On to `CCN(CC)c1ccc(-n2c(-c3ccc(C#N)c(F)c3)nc3c(N4CCC[C@@H](N)C4)ccnc32)cc1` [Example 21, (R)-4-(7-(3-aminopiperidine-1-yl)-3-(4-(diethylamino)phenyl)-3H-imidazo[4,5-b]pyridine-2-yl)-2-fluorobenzonitrile], for which the concentration for 50% growth inhibition (GI50) was 0.027 µM. The figure for `COCCCN(C)c1ccc(-n2c(-c3ccc(C#N)c(F)c3)nc3c(N4CCC[C@@H](N)C4)ccnc32)cc1` [Example 48, (R)-4-(7-(3-aminopiperidine-1-yl)-3-(4-((3-methoxypropyl)(methyl)amino)phenyl)-3H-imidazo[4,5-b]pyridine-2-yl)-2-fluorobenzonitrile] is 0.023 µM; for `CC(C)c1ccc(-n2c(-c3ccc(C#N)c(F)c3)nc3c(N4CCC[C@@H](N)C4)ccnc32)cc1` [Example 43, (R)-4-(7-(3-aminopiperidine-1-yl)-3-(4-isopropylphenyl)-3H-imidazo[4,5-b]pyridine-2-yl)-2-fluorobenzonitrile] it is 0.06 µM. In the case of `CO[C@H]1CCN(c2ccc(-n3c(-c4ccc(C#N)c(F)c4)nc4c(N5CCC6(CCNCC6)CC5)ccnc43)c(F)c2)C1` [Example 70, (S)-2-fluoro-4-(3-(2-fluoro-4-(3-methoxypyrrolidine-1-yl)phenyl)-7-(3,9-diazaspiro[5.5]undecan-3-yl)-3H-imidazo[4,5-b]pyridine-2-yl) benzonitrile] it was 0.034 µM. In the case of `O=C(O)c1ccc(CN2CCC(CN[C@@H]3C[C@H]3c3ccccc3)CC2)cc1` [Control, GSK2879552, reference compound] it was 0.311 µM.

With `CO[C@H]1CCN(c2ccc(-n3c(-c4ccc(C#N)c(F)c4)nc4c(N5CC6CNCC(C6)C5)ccnc43)c(F)c2)C1` [Example 71, 4-(7-(3,7-diazabicyclo[3.3.1]nonane-3-yl)-3-(2-fluoro-4-((S)-3-methoxypyrrolidine-1-yl)phenyl)-3H-imidazo[4,5-b]pyridine-2-yl)-2-fluorobenzonitrile], the GI50 came out at 0.044 µM. In the case of `N#Cc1ccc(-c2nc3c(N4CCC[C@@H](N)C4)ccnc3n2-c2ccc3scnc3c2)cc1F` [Example 58, (R)-4-(7-(3-aminopiperidine-1-yl)-3-(benzo[d]thiazole-5-yl)-3H-imidazo[4,5-b]pyridine-2-yl)-2-fluorobenzonitrile] it was 0.064 µM.
